Results reported in US20160194336A1, “P38 MAPK INHIBITORS FOR THE TREATMENT OF INFLAMMATORY DISEASES” (ALLINKY BIOPHARMA, priority 2012, published 2016).
Like-named read-outs stand apart in the source and are kept apart here.

Legend:
p38alpha [1] = molecular target: T1, p38alpha (Homo sapiens, UniProt Q16539); test: p38 cascade kinase reaction (inactive p38alpha, MKK6, ATF2, ADP-Glo); type: biochemical; settings: for inhibition at 10 µM: compound 10 μM; for inhibition at 100 µM: compound 100 μM
T1 construct: purchased Invitrogen PV3305
Method: Purified recombinant activated p38alpha (10 nM)(ProQinase) was preincubated 10 minutes at 30° C. with the compound of interest at concentrations between 1 and 100 µM in duplicate in a final volume of 30 ul of kinase buffer (Hepes 60 mM pH 7.5, MgCl2 3 mM, MnCl2 3 mM, Sodium Orthovanadate 3 μM, DTT 1.2 mM). After preincubation, peptide substrate (SignalChem #P03-58) and ATP were added to a final concentration of 10 μM and 100 μM respectively, and then incubated 40 minutes at 30° C. for the kinase reaction. Phosphorylation was analyzed with ADP-GloM (Promega #V9101) and emitted luminescence was measured with BMG Fluostar microplate reader.
(§1) After preincubation, MKK6 (ProQinase), ATF2 (ProQinase) and ATP were added to a final concentration of 10 nM, 5 μM and 10 μM respectively, then incubated 40 minutes at 30° C. and analyzed with ADP-Glo™.

p38beta = p38beta (Homo sapiens, UniProt Q15759); test: p38 cascade kinase reaction, p38beta/ATF-2; type: biochemical
Method: as §1

p38alpha wt = molecular target: T2, p38alpha wt (Homo sapiens, UniProt Q16539); test: site-mutated p38 phosphorylation cascade assay, wild type; type: biochemical; settings: compound 10 uM
T2 construct: made in house; host or cells: E. coli XL10-Gold
Method: as §1
(§2) Replacement of specific residues arginine 186 and 189 of p38α (pGEX4T-1-p38α) for alanine was performed with the QuikChange Lightining Site-Directed Mutagenesis Kit (Agilent Technologies). The following oligonucleotides were used for the arginine 186 to alanine substitution: forward primer: 5′-SEQ ID NO 7-3′; reverse primer: 5′-SEQ ID NO 8-3′. Oligonucleotides used for the arginine 189 to alanine substitution were: forward primer: 5′-SEQ ID NO 9-3′; reverse primer: 5′-SEQ ID NO 10-3′. Mutations were validated by sequencing (Genomic Unit, Parque Cientifico de Madrid). E. coli XL10-Gold ultracompentent cells (Agilent Technologies) were transformed with the vector plasmids containing p38αWT and mutants. For the expression of recombinant p38α transformed cells were cultured overnight at 37° C. in 50 ml of fresh LB medium containing ampicillin (100 μg/ml). After that, culture was diluted in fresh LB to A595=0.4 and grown for approximately 1 h at 37° C. until exponential growth and then induced with Isopropyl-β-D-thiogalactopyranoside (IPTG) 1 mM for 5 h. The cells were collected by centrifugation and cell pellet were resuspended in 50 ml of cold lysis buffer: PBS pH 7.4, EDTA 10 mM, PMSF 1 mM, Benzamidine 0.2 mM, DTT 5 mM, Triton X-100 1% and Lysozyme 1 mg/ml. The soluble and insoluble fractions were separated by centrifugation (16,000 g for 20 min). The soluble fraction was incubated for 2 hours with 1 ml of pre-equilibrated Glutathione Sepharose 4B (GE Healthcare) and the resin was extensively washed in a column with 200 ml of binding buffer: PBS, PMSF 1 mM and benzamidine 0.2 mM. Proteins were eluted with 1 ml of Tris-HCl 50 mM pH 8.0 and reduced glutathione 20 mM. 20% glycerol was added to purified proteins and stored at −80° C. Protein concentration and purity was assessed by SDS-PAGE. Kinase activity was measured by ADP-glo kit using MKK6 as activator and ATF2 as substrate. Activity recorded for p38αR186A and p38αR189A were 15.5% and 4.8%, respectively (n=4) related to wild type protein.

p38αR186A = molecular target: T3, p38αR186A (Homo sapiens, UniProt Q16539, R186A); test: site-mutated p38 phosphorylation cascade assay, R186A mutant; type: biochemical; settings: compound 10 uM
T3 construct: made in house; host or cells: E. coli XL10-Gold
Method: as §1, §2

p38αR189A = molecular target: T4, p38αR189A (Homo sapiens, UniProt Q16539, R189A); test: site-mutated p38 phosphorylation cascade assay, R189A mutant; type: biochemical; settings: compound 10 uM
T4 construct: made in house; host or cells: E. coli XL10-Gold
Method: as §1, §2

[2] = tested on: Fibroblast-like synoviocytes (FLS) from patients with rheumatoid arthritis; test: inflammatory mediators (IL6, IL8, MCP-1) by ELISA in FLS stimulated with TNF-alpha; type: cell-based, human; settings: for % of inflammatory mediators production in the presence of compounds, IL6 / % of inflammatory mediators production in the presence of compounds, IL8 / % of inflammatory mediators production in the presence of compounds, MCP-1: synoviocytes, TNFa + compound 100 uM
Method: Fibroblast-like synoviocytes (FLS) from patients with rheumatoid arthritis (RA) were obtained at the time of synovectomy or joint replacement. All RA patients fulfilled the American College of Rheumatology […] criteria for the diagnosis of RA (Arnett FC y cols. 1988 Arthritis Rheum 31(3):315-24).
Synovial tissue was minced and incubated with 10 μg/ml collagenase in serum-free Dulbecco modified Eagle medium (DMEM; Gibco Invitrogen, Barcelona, Spain) for 3 h at 37° C. After digestion, FLS were filtered through a nylon cell strainer (BD Falcon, Franklin Lakes, USA), washed extensively, and cultured in DMEM supplemented with 10% v/v fetal calf serum, 1% penicillin-streptomycin, and 1% L-glutamine (all reagents from PAA, Laboratories GmbH) in a humidified 5% C02 atmosphere. Adherent cells at 80-90% confluence were trypsinised and diluted at a split ratio of 1:3. FLS from 4 patients and between passages 3 to 8 were used for all experiments.
Enzyme-Linked Immunosorbent Assay (ELISA): RA FLS (1×10^4 cells/well) were cultured in DMEM 1% FCS in 96 well plates and treated with p-p38 inhibitors for 1 h. After, they were stimulated with TNF-α (10 ng/ml, Sigma Aldrich) and both treatments were present in the culture throughout the experiment. The supernatants were harvested at 18 h after treatment and assayed for IL6, IL8/CXCL8 and monocyte chemoattractant protein (MCP)-1/CCL2 by ELISA according to the manufacturer's instructions (BD Bioscience, San Jose, Calif., USA).

[3] = tested on: TNF-α secretion, THP-1 cells; test: Inhibition of TNF-α secretion by LPS-stimulated THP-1; type: cell-based; settings: Homo sapiens, THP-1, 3 h, monocytes with LPS, read-out: TNF abetment
Method: Inhibition of TNF-α Secretion by a Human Monocytic Cell Line, THP-1.
THP-1 cells, growing in log phase, were collected by centrifugation and resuspended in RPMI 1640 (Sigma Aldrich), to a final cell concentration of 2×10^6 cells/ml. Cells were plated into 24-well plates (BD Biosciences). Dilutions of compounds in dimethyl sulfoxide (DMSO) were added to the culture to a final concentration M. The final DMSO concentration was 0.5%. The cells […] suspensions were preincubated with compounds for 1 h at 37° C. in a 5% C02 humidified atmosphere before the addition of LPS (Sigma Aldrich, L2654) to a final concentration of 2 μg/ml. After that, cells were incubated for 3 h followed by centrifugation to pellet cells. Cell supernatants were stored at 4° C. until Human analysis for TNF-α content. TNF-α levels were determined by ELISA (TNF Biotrak, GE Healthcare) following the manufacturer's directions. The percentage inhibition was calculated for each compound concentration tested, and the IC50 was calculated for each compound.

THP-1 cells = test: survival of monocytes with LPS; type: cell-based, human
p38alpha [4] = molecular target: T1, p38alpha; test: p38 cascade kinase reaction (inactive p38alpha, MKK6, ATF2, ADP-Glo); type: biochemical; settings: ATP 100 μM; compound 10 μM; n=4; read-out: inhibition, ATP-site competitive assay, cascade p38alpha/ATF-2
[5] = molecular target: ATF2 (ProQinase) (Homo sapiens (Human)) (UniProt P15336)
[6] = dose response table, read-out: inhibition p38alpha/ATF-2
[7] = FLS sample R 2, compound 100 μM
[8] = FLS sample R 6, compound 100 μM
[9] = FLS sample R 8, compound 100 μM
[10] = FLS sample SH203, compound 100 μM
[11] = mean of 4 FLS samples, compound 100 μM
[12] = read-out: inhibition p38a/ATF-2 (p38 cascade)

T4 sequence (Q16539 whole entry R189A): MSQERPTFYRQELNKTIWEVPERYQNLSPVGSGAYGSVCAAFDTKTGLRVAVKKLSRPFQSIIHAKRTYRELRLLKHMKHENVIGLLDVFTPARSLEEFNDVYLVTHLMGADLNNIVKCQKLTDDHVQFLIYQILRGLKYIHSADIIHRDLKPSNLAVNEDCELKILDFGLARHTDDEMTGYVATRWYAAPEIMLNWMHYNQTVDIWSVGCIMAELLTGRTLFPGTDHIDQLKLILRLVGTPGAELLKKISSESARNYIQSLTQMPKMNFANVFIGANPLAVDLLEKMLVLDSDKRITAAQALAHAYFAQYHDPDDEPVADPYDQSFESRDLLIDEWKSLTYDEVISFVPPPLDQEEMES
T2 sequence (Q16539 whole entry): as the sequence (Q16539 whole entry R189A) above, with A189R counted along it
T1 sequence (Q16539 whole entry): as the sequence (Q16539 whole entry R189A) above, with A189R counted along it
T3 sequence (Q16539 whole entry R186A): as the sequence (Q16539 whole entry R189A) above, with R186A, A189R counted along it
Chain of p38beta (Q15759 whole entry): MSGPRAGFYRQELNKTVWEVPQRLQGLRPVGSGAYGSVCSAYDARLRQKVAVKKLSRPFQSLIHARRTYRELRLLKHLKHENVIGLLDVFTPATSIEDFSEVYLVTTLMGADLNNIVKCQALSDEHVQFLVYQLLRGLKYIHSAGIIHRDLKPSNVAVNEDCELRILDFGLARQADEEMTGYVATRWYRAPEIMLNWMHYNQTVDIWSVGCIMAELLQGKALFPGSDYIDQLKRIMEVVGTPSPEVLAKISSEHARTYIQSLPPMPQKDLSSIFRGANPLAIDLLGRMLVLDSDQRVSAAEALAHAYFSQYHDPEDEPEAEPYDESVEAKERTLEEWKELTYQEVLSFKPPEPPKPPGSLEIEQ

`CCOC(=O)c1ccc(Nc2nc3nonc3nc2N2CCC(Cc3ccccc3)CC2)cc1` [Compound 1] was tested, and the inhibition at 10 µM (p38alpha [1]; ATP 10 μM, n=4, read-out: inhibition, ATP-site competitive assay, cascade p38alpha/ATF-2) was 94%, the “inhibition upon ATP increase (ATP-site competition)” value (p38alpha [1]; cascade p38alpha/ATF-2, n=4) was “Maintains Inhibition to the Same Level Upon ATP Increase” and the inhibition at 10 µM (p38alpha [1]; [6]) was 88%. The inhibition at 100 µM (p38alpha [1]; [6]) was 101%, the inhibition at 10 µM (p38beta; compound 10 μM) was 58% and the inhibition at 100 µM (p38beta; compound 100 μM) was 100%. The inhibition at 10 µM (p38alpha wt) was 64%, the inhibition at 10 µM (p38αR186A) was 20% and the inhibition at 10 µM (p38αR189A) was 25%. For the same compound, the “IL-6, % of TNF-α control” value [2, 7] was 13.8%, the “IL-8, % of TNF-α control” value [2, 7] was 27.3% and the “MCP-1, % of TNF-α control” value [2, 7] was 2.1%. For the same compound, the “IL-6, % of TNF-α control” value [2, 8] was 8.1%, the “IL-8, % of TNF-α control” value [2, 8] was 4.8% and the “MCP-1, % of TNF-α control” value [2, 8] was 0.0%. The “IL-6, % of TNF-α control” value [2, 9] was 23.5%, the “IL-8, % of TNF-α control” value [2, 9] was 67.4% and the “MCP-1, % of TNF-α control” value [2, 9] was 22.5%. For the same compound, the “IL-6, % of TNF-α control” value [2, 10] was 101.4%, the “IL-8, % of TNF-α control” value [2, 10] was 43.8% and the “MCP-1, % of TNF-α control” value [2, 10] was 8.8%. For the same compound, the “IL-6, % of TNF-α control, Media” value [2, 11] was 36.7%, the “IL-8, % of TNF-α control, Media” value [2, 11] was 35.8% and the “MCP-1, % of TNF-α control, Media” value [2, 11] was 8.4%. For the same compound, the inhibition at 1 µM [3] was 9%, the inhibition at 10 µM [3] was 40% and the Cell survival (THP-1 cells; 1 uM) was 96%. For the same compound, the Cell survival (THP-1 cells; 10 uM) was 93% and the inhibition at 10 µM (p38alpha [4]) was 92%.
Work on `COc1ccccc1NC(=O)C[C@H](NCCCO)C(=O)O` [Compound 3] yielded an inhibition at 100 µM (p38alpha [1]; [12]) of 17%.
In the case of `Nc1ccc(OCC(O)C[n+]2ccc(CCS(=O)(=O)[O-])cc2)cc1` (stereo not drawn) [Compound 4], the inhibition at 10 µM (p38alpha [1]; [12]) is reported as 8%.
`CC(C)n1nnnc1C(c1ccc(O)cc1)N1CCN(c2nc3ccccc3s2)CC1` (stereo not drawn) [Compound 5] was tested, and the inhibition at 10 µM (p38alpha [1]; [12]) was 28%.
Work on `CCOCCCNc1nc2nnnn2c2sc3c(c12)CCN(Cc1ccccc1)C3` [Compound 6] yielded an inhibition at 10 µM (p38alpha [1]; [12]) of 107%.
`Oc1nc(N/N=C/c2ccc3c(c2)OCO3)nc(N2CCOCC2)n1` [Compound 7] showed an inhibition at 10 µM (p38alpha [1]; [12]) of 16%.
In the case of `OCCOc1nc(OCCO)nc(OCCO)n1` [Compound 8], the inhibition at 100 µM (p38alpha [1]; [12]) is reported as 20%, the “% of inflammatory mediators production in the presence of compounds, IL6” value [2] is reported as 66.5% and the “% of inflammatory mediators production in the presence of compounds, IL8” value [2] is reported as 83.4%. For the same compound, the “% of inflammatory mediators production in the presence of compounds, MCP-1” value [2] was 75.4%.
`O=S(=O)(c1cnccc1N1CCN(CCO)CC1)N1CCOCC1` [Compound 11] was tested, and the inhibition at 10 µM (p38alpha [1]; [12]) was 1%.
`CCOC(=O)N1CCN(C2=Nc3nnnn3C3CC4CN(Cc5ccccc5)CCC4C23)CC1` (stereo not drawn) [Compound 32] showed an inhibition at 10 µM (p38alpha wt) of 23%, an inhibition at 10 µM (p38αR186A) of 17% and an inhibition at 10 µM (p38αR189A) of 9%. For the same compound, the “% of inflammatory mediators production in the presence of compounds, IL6” value [2] was 52.4%, the “% of inflammatory mediators production in the presence of compounds, IL8” value [2] was 34.8% and the “% of inflammatory mediators production in the presence of compounds, MCP-1” value [2] was 22.7%. The inhibition at 10 µM [3] was 21% and the Cell survival (THP-1 cells; 10 uM) was 99%.
For `CCOC(=O)c1ccc(Nc2nc3nonc3nc2N2CCC(Oc3ccncc3)CC2)cc1` [Compound 33], the inhibition at 10 µM (p38alpha wt) was 47%, the inhibition at 10 µM (p38αR186A) was 23% and the inhibition at 10 µM (p38αR189A) was 19%. It also gave an inhibition at 0.1 µM ([3]; 0.1 uM) of 21%, an inhibition at 1 µM [3] of 46% and an inhibition at 10 µM [3] of 62%. The Cell survival (THP-1 cells; 0.1 uM) was 100%, the Cell survival (THP-1 cells; 1 uM) was 99% and the Cell survival (THP-1 cells; 10 uM) was 97%.
Compound “MKK6 (ProQinase) (from UniProt P52564) (enzyme)” has a kinase activity of the cascade MKK6/p38α/ATF2 (ADP-glo kit) (% related to wild type protein) (p38αR186A (Homo sapiens)) of 15.5 and a kinase activity of the cascade MKK6/p38α/ATF2 (ADP-glo kit) (% related to wild type protein) (p38αR189A (Homo sapiens)) of 4.8.
For p38αR186A (enzyme), the kinase activity (ADP-glo kit) (% related to wild type protein) [5] was 15.5.
In the case of p38αR189A (enzyme), the kinase activity (ADP-glo kit) (% related to wild type protein) [5] is reported as 4.8.
